We go through 63 compounds from PubChem BioAssay AID2305 (GlaxoSmithKline (GSK), 2010).

This assay deals with P. falciparum 3D7 growth, pLDH absorbance. Put plainly: P. falciparum 3D7 growth inhibition, dose response, strain 3D7 (AID 2305).

As to `OCC1CCN(Cc2ccc(-c3cccc(-c4nc5ccccc5[nH]4)c3)cc2)CC1`, the IC50 (as a rule, the point on the concentration scale where inhibition reaches its midpoint) is 810 nM.
With `Oc1ccccc1CNCC(O)c1cccc(C(F)(F)F)c1` (stereo not drawn), the IC50 is 530 nM.
`COc1ccc2ncc(F)c(CCN3[C@@H]4CC[C@H]3CC(NCc3cc5c(cn3)OCS5)C4)c2n1` (stereo partly drawn) returned an IC50 of 920 nM.
The compound `O=C(Nc1cccc(CN2CCCN(Cc3cccc(O)c3)CC2)c1)c1cc2ccccc2s1` gave an IC50 of 360 nM.
Under `C[C@@H]1CN(c2cnn(Cc3ccc(NC(=O)Nc4ccc(-c5ccccc5)cc4)cc3)c(=O)c2Cl)C[C@H](C)N1` stands 370 nM; under `O=C(Nc1ccc(C(F)(F)F)cc1)NC1CCN(CCCCCNC(=O)[C@@H]2C[C@H]2c2ccc(Cl)c(Cl)c2)CC1`, 630 nM; under `COc1ccc(-c2ccnc(-c3cccc(-c4ccccn4)n3)c2)cc1`, 820 nM.
As for `CCN(CC)CCN1C(=O)c2oc3ccc(F)cc3c(=O)c2C1c1cccc(Cl)c1` (stereo not drawn), the figure is 530 nM; as for `Cc1ccc2c(c1)NC[C@@]21CCN(C[C@@H](O)C2CCN(c3cc(C#N)ccn3)CC2)C[C@@H]1C`, 610 nM; as for `OC(CNCc1cccc(Oc2ccc(Cl)cc2)c1)c1cccc(C(F)(F)F)c1` (stereo not drawn), 970 nM.
As for `Cc1c(CNCCCNc2cc(=O)c3ccccc3[nH]2)sc(C(F)=C(F)F)c1Br`, the figure is 840 nM; as for `COc1ccc(Br)cc1/C=C/C(=O)Nc1cccc(C2CCCN(C)C2)c1` (stereo not drawn), 890 nM; as for `CC(C)CCN=C(N)Nc1ccc(OCCCOc2ccc(NC(N)=NCCC(C)C)cc2)cc1`, 200 nM.
`CCn1c(Sc2ccc(C#N)c([N+](=O)[O-])c2)nnc1-c1ccc(OC)cc1` yielded an IC50 of 810 nM.
As for `COc1ccc2nc(C)cc(NN=Cc3ccncc3)c2c1`, the figure is 700 nM.
Turning to `CN1CCCC(CN2CCN(Cc3cccc(-c4ccc(-c5nc6ccccc6[nH]5)cc4)c3)CC2)C1` (stereo not drawn), the IC50 was 160 nM.
Under `CCCN(Cc1ccc(C)cc1)Cc1cc(=O)c2cc(Cl)ccc2[nH]1` stands 1050 nM.
Under `Cc1ccc(C2CCN(CCCCNC(=O)c3ccc(-c4ccc(C#N)cc4)cc3)CC2)c(O)c1` stands 290 nM; under `O=C(Nc1nccs1)c1cc(-c2cccnc2)nc2ccc(Br)cc12`, 400 nM.
Under `O=C(Nc1ccc(Cl)cc1)N1CCN(C2CCCCC2)CC1` stands 990 nM; under `COc1ccc(-c2nonc2NC(=O)c2cccc(Cl)c2)cc1OC`, 880 nM; under `O=C(NC(c1ccccc1)c1ccccc1)C(c1cc2ccccc2o1)N1CCN(C(c2ccccc2)c2ccccc2)CC1` (stereo not drawn), 680 nM.
`O=[N+]([O-])c1cccc(C=NNc2ccnc3cc(F)ccc23)c1` displayed an IC50 of 910 nM.
Regarding `CN(Cc1cccc(F)c1)C1CCN(c2cc(NC(=O)c3ccc(F)cc3)ccn2)C1` (stereo not drawn), the half-maximal inhibitory concentration (IC50) is 1230 nM. This IC50 and that of the compound before are within 1.5-fold of each other.
For `CCOc1ccc(-c2nonc2NC(=O)c2ccccc2Cl)cc1OCC`, the IC50 is 740 nM.
`COc1ccc2nccc([C@@H](O)CN3CCC(NC(=O)Cc4cc5ccccc5s4)CC3)c2c1`: the IC50 is 910 nM.
With `COc1ccc(CCN(C)CCCN2CCC(NC(=O)c3cccc4c(=O)c5ccccc5sc34)CC2)cc1OC`, the 50% inhibitory concentration (IC50) amounted to 790 nM.
In the case of `CC(C)NCc1ccc(-c2cccc(-c3nc4ccc(F)cc4[nH]3)c2)cc1`, the IC50 turned out to be 410 nM.
In the case of `Cc1cc(C)cc(-n2c(C)cc(C=C3SC(=Nc4ccc(Cl)cc4)NC3=O)c2C)c1`, the IC50 is 70 nM.
Regarding `Cn1c(=N)cc(-c2ccc(Br)cc2)c2c(=O)[nH]c(N)nc21`, the IC50 turned out to be 1130 nM. This IC50 lies about 16-fold higher than the previous one.
Compound `CC(C)NCc1cccc(-c2ccc(NC(=O)c3ccc(F)cc3)cc2)c1` returned a half-maximal inhibitory concentration (IC50) of 850 nM. The IC50 values of the last two compounds are within 1.5-fold of each other.
As to `COC(=O)c1ccccc1N1CCN(CCCCNC(=O)c2ccc(NC(=O)c3cc(Cl)cc(Cl)c3)cc2)CC1`, the IC50 came to 560 nM.
With `OC(CNc1ccnc(Nc2cccc(Cl)c2)n1)c1ccccc1C(F)(F)F` (stereo not drawn), the IC50 was determined as 900 nM. Compared with the last compound, the IC50 is about 1.6-fold higher.
On to `CCN(CCCN1CCCCC1)c1cc(C)nc(Nc2ccc(OC)cc2)n1`, for which the IC50 was found to be 620 nM. The IC50 values of the last two compounds are within 1.5-fold of each other.
Compound `Cc1noc(C)c1-c1cccc(CNCc2ccc(-c3cccc(-c4nc5c(C)cccc5[nH]4)c3)cc2)c1` yielded an IC50 of 220 nM.
As for `O=C(NC1CCCCN(Cc2ccccc2O)C1)c1cccc(Cl)c1` (stereo not drawn), the figure is 1060 nM; as for `COc1cc(Cc2cnc(N)nc2N)cc(OCCCOc2ccccc2)c1OC`, 1080 nM.
`O=C(n1c(-c2cc3ccccc3n2C(=O)C(F)(F)F)cc2ccccc21)C(F)(F)F` had a half-maximal inhibitory concentration (IC50) of 880 nM. This IC50 and that of the compound before are within 1.5-fold of each other.
As for `CCCCCCN(CCCCCC)CC(O)c1c(OC)ccc2ccccc12` (stereo not drawn), the figure is 570 nM; as for `CC[C@H](NC(=O)c1c(N)c(-c2sccc2Cl)nc2ccccc12)c1ccccc1`, 910 nM.
As for `Cc1ccc(-c2ccn(Cc3ccc(OCc4ccccc4)cc3)n2)cn1` (tested in a mixture with another compound), the figure is 670 nM; as for `CCOc1c(CNCCCNc2cc(=O)c3ccccc3[nH]2)cc(Br)cc1OC`, 1160 nM; as for `CCNc1cc(C(=O)N[C@@H](Cc2ccccc2)[C@H](O)CNCCC(C)(C)C)c(F)c(N2CCCCS2(=O)=O)c1`, 800 nM.
For the compound `COc1ccc(CNCCCCCCNCc2ccc(OC)c3ccccc23)c2ccccc12`, the IC50 turned out to be 580 nM. This IC50 and that of the compound before are within 1.5-fold of each other.
Under `COc1cc(-c2ccc(-c3cnc(N)nc3OC)[nH]2)cc(OC)c1OC` stands 730 nM; under `CS(=O)(=O)c1ccc(CNCc2ccc(-c3ccc(-c4nc5ccc(F)cc5[nH]4)s3)cc2)cc1`, 270 nM.
Turning to `CCC(C)(C)C1CCc2nc(N)nc(N)c2C1` (stereo not drawn), the IC50 worked out at 10 nM.
As for `Cn1nc(-c2ccc(CNC3CCc4ccccc43)cc2)c2cnc(NCCN3CCCC3)nc21` (stereo not drawn), the figure is 1350 nM; as for `Oc1ccc(Br)cc1-c1nc2ccc(Cl)cc2nc1-c1cc(Br)ccc1O`, 790 nM.
Under `Cc1onc(-c2ccccc2)c1C(=O)Nc1nc(-c2ccccn2)nc2ccsc12` stands 690 nM; under `O=C(Nc1cccc(-c2ccc(-c3nc4ccc(C(F)(F)F)cc4[nH]3)cc2)c1)c1cnc[nH]1`, 970 nM; under `FC(F)(F)c1ccc2nc(-c3ccc(-c4ccc(CNCc5ccccc5)cc4)cc3)[nH]c2c1`, 140 nM.
Under `CS(=O)(=O)NCCCNCc1cccc(-c2cccc(-c3nc4ccc(C(F)(F)F)cc4[nH]3)c2)c1` stands 470 nM; under `CC(C)(CNCc1cccc(Oc2cccc(C(F)(F)F)c2)c1)c1nc(-c2ccc(Cl)c(O)c2)c(-c2ccnc(N)n2)[nH]1`, 190 nM.
As to `Cc1cccc2[nH]c(-c3ccc(-c4cccc(CNCc5ccc(S(C)(=O)=O)cc5)c4)s3)nc12`, the IC50 came out at 330 nM.
As for `COc1ccc2ncc(F)c(CCN3CCC(NCc4cc(Br)c5c(c4)OCCO5)CC3)c2n1`, the figure is 190 nM.
With `CN(CC1CCC(NC(=O)/C=C/c2ccc(Cl)c(Cl)c2)CC1)C1CCC(c2c[nH]c3ccccc23)CC1` (stereo not drawn), the IC50 turned out to be 840 nM.
As for `CC(C)(CNC(=O)/C=C/c1ccc(Cl)c(Cl)c1)CNc1cc(=O)c2ccccc2[nH]1`, the IC50 stood at 860 nM.
Under `Oc1ccc2[nH]c(-c3cccc(F)c3)nc2c1CNCc1ccccc1` stands 920 nM.
Under `CCCCCCCCc1c(C)[nH]c(C)c(Br)c1=O` stands 820 nM; under `N#Cc1ccc2c(c1)CCN(CCC1CCC(NC(=O)/C=C/c3ccc4ccccc4c3)CC1)CC2` (stereo not drawn), 720 nM.
For `CNc1ccc(CNCc2ccc(-c3ccc(-c4nc5ccc(C(F)(F)F)cc5[nH]4)cc3)cc2)cc1`, the IC50 stood at 170 nM.
Take `CCCCCCNCCOc1ccc(-c2nc(-c3ccccc3)c(-c3ccccc3)[nH]2)cc1`: the IC50 came to 670 nM. Compared with the last compound, the IC50 is about 3.9-fold higher.
